Holding throughout (type): cell-based, mouse
Assay [1] has as its system E13.5 primary culture midbrain dopamine neurons. Description: parkin siRNA knockdown in primary midbrain dopamine neuron cultures with kainate or MPP+, immunofluorescence and Hoechst. The procedure: Dissociated midbrain cultures from El 3.5 mice were prepared as described (see Examples), transfected with 25 nM parkin or control (SERT) siRNA, and treated for 24 h with 250 μM kainate (A-X) or 1 μM MPP^+ (U—X). Cells were treated with Hoechst dye, fixed, and stained with rabbit polyclonal antibodies against either mouse parkin or cyclin E (green) and a rat monoclonal antibody against DAT (red). Immunostaining and apoptotic nuclei were visualized by fluorescence microscopy. Arrows point to examples of DAT-positive, cyclin-E-positive neurons (S) and DAT-positive neurons with apoptotic (Hoechst-positive) nuclei (I, J, and T). Total DAT-specific immunoreactivity (pixels), across 9 fields of view at 20×, was quantified in triplicate using Image software (Scion). Cytoplasmic parkin and cyclin E immunoreactivity (mean pixel density), in DAT-positive neurons, were similarly quantified. Data are shown as the mean±SEM. Statistical significance was assessed using one-way ANOVA with Tukey-Kramer post-hoc tests between each group. *=p<0.01; scale bar=150 μm
FIG. 10 further illustrates parkin/cyclin E interaction. […] Total RNA was extracted from granule cell cultures transfected with parkin or vector alone (see FIG. 5), and from frontal cortex tissue from parkin-deficient ARPD (or age-matched control; see FIG. 4). Cyclin E and β-actin mRNA levels were determined by quantitative RT-PCR, as described (Troy et al., Death in the balance: alternative participation of the caspase-2 and -9 pathways in neuronal death induced by nerve growth factor deprivation. J. Neurosci., 21:5007-16, 2001). (B-D) Both cyclin E immunoreactivity (p<0.05) and apoptosis (p<0.05) are increased in DAT-negative neurons of primary midbrain cultures treated with parkin siRNA (and kainate) relative to control siRNA (and kainate). However, the increased cyclin E immunoreactivity and apoptosis are both less marked than in DAT-positive neurons (p<0.05 for both measures). DAT-negative neurons in midbrain cultures were analyzed as in FIG. 7; DAT-positive neuron data is from FIG. 7. Cytoplasmic parkin and cyclin E immunoreactivity (mean pixel density) in DAT-negative neurons were quantified in triplicate, across 9 fields of view at 20×. Data are shown as the mean±SEM. Statistical significance was assessed using one-way ANOVA with Tukey-Kramer post-hoc tests between each group. *=p<0.01; **=p<0.05; scale bar=150 μm (E-J) Human parkin lentiviral vectors efficiently infect cultured murine midbrain dopamine neurons. E13.5 murine midbrain cultures were infected with lentiviruses encoding human parkin or control (GFP), as described in FIG. 8.
Cerebellar granule neurons from P6 mice were purified and transfected essentially as described (Scheiffele et al., Neuroligin expressed in nonneuronal cells triggers presynaptic development in contacting axons. Cell, 101:657-69, 2000). Dissociated cortical neurons from E16.5 mice were prepared and cultured as described (Scheiffele et al., Neuroligin expressed in nonneuronal cells triggers presynaptic development in contacting axons. Cell, 10 1:657-69, 2000). Primary midbrain cultures were prepared from E13.5 mouse embryos, as described (Hynes et al., Induction of midbrain dopaminergic neurons by Sonic hedgehog. Neuron, 15:35-44, 1995). Cells were treated for 24 h with or without kainate (250 or 500 μM as indicated; Sigma) or MPP^+ (1 or 10 μM as indicated; Sigma), stained for 20 min with 0.5 μg/ml Hoechst 33342 (Sigma), and visualized by fluorescence microscopy. For granule cell assays, at least 100 cells in two 20× fields were scored in duplicate for GFP and/or Hoechst signal. For immunohistochemistry, cell cultures were washed twice with PBS, and fixed for 20 min with 4% (w/v) paraformaldehyde. Cells were blocked for 1 h, at room temperature, with 3% (v/v) goat serum in PBS, and then incubated overnight, at 4° C., with specific antibodies, as indicated. […]

Assay [2] concerns cerebellar granule cells from P6 mice. Description: parkin overexpression in kainate-treated cerebellar granule cells, cyclin E by Western blot / immunofluorescence / RT-PCR. As to conditions: kainate 500 μM for 24 h. The procedure:
Cerebellar granule cells from post-natal day 6 (P6) mice were transfected in suspension with a bicistronic expression plasmid for wild-type parkin (along with GFP) or with vector (GFP alone), cultured at a density of 75,000 cells/cm^2 for 72 h, and then treated with or without 500 μM kainate for 24 h. (A) Cells were extracted directly with loading buffer, and lysates were analyzed by Western blotting, as indicated. (B-M) Granule cell cultures were fixed, stained with a specific antibody against cyclin E, and then visualized by fluorescence microscopy for cyclin E (red) and GFP (green). […]
Cerebellar granule neurons from P6 mice were purified and transfected essentially as described (Scheiffele et al., Neuroligin expressed in nonneuronal cells triggers presynaptic development in contacting axons. Cell, 101:657-69, 2000). […] Cells were treated for 24 h with or without kainate (250 or 500 μM as indicated; Sigma) or MPP^+ (1 or 10 μM as indicated; Sigma), stained for 20 min with 0.5 μg/ml Hoechst 33342 (Sigma), and visualized by fluorescence microscopy. For granule cell assays, at least 100 cells in two 20× fields were scored in duplicate for GFP and/or Hoechst signal. […] Cells were washed, incubated for 1 h at room temperature with appropriately-labeled secondary antibodies, and visualized by fluorescence microscopy. […]
A general note: A western blot detects proteins with antibodies after separation by electrophoresis.

The test system of assay [3] is dissociated cortical neurons from E16.5 mice. Description: parkin siRNA knockdown in kainate-treated primary cortical cultures, Western blot. The conditions noted are these: 25 nM siRNA, then 500 μM kainate 24 h. The procedure:
(A) Insect cells were co-infected with baculoviruses expressing Flag-hSel-10 (110 kDa) or Flag-β-TrCP, GST-parkin, HA-CDK2, and either His6-cyclin E or His6-cyclin A1 (50 kDa). Cyclin-E- or cyclin-A1-associated complexes were isolated from cell lysates by nickel-agarose pull-downs, and analyzed by Western blotting, as indicated. (B) Flag-parkin-associated complexes (immunoprecipitated from HeLa cells transfected with Flag-tagged wild-type or T240R mutant parkin) were incubated with recombinant His6-cyclin E, HA-CDK2, E1, UbcH7, and ubiquitin, in the presence of an ATP-regenerating system. Recombinant His6-cyclin E generated in insect cells appears as a 51 -kDa band (arrow) and a minor contaminating species at 95-kDa. The asterisk indicates the position of an immunoglobulin heavy chain. (C) Parkin deficiency leads to cyclin E accumulation. Dissociated cortical neurons from E16.5 mice were cultured as described (see Examples), transfected with 25 nM parkin siRNA or control (DAT) siRNA, and then treated for 24 h with 500 μM kainate. […]
Cerebellar granule neurons from P6 mice were purified and transfected essentially as described (Scheiffele et al., Neuroligin expressed in nonneuronal cells triggers presynaptic development in contacting axons. Cell, 101:657-69, 2000). […] Cells were treated for 24 h with or without kainate (250 or 500 μM as indicated; Sigma) or MPP^+ (1 or 10 μM as indicated; Sigma), stained for 20 min with 0.5 μg/ml Hoechst 33342 (Sigma), and visualized by fluorescence microscopy. For granule cell assays, at least 100 cells in two 20× fields were scored in duplicate for GFP and/or Hoechst signal. […] Cells were washed, incubated for 1 h at room temperature with appropriately-labeled secondary antibodies, and visualized by fluorescence microscopy. For midbrain culture experiments, DAT-specific immunoreactivity (pixels), and cytoplasmic parkin and cyclin E immunoreactivity (mean pixel density), were quantified in triplicate, across nine fields of view, at 20× using Image software (Scion). […]

Here are results for 3 molecules from US20040247586A1, “Parkin-associated complex for protecting post-mitotic neurons from excitotoxicity and uses thereof” (priority 2003, published 2004).

`C[n+]1ccc(-c2ccccc2)cc1` [MPP^+, 1-Methyl-4-phenylpyridinium, reference compound]: in assay [1] (MPP+ 10 μM, control siRNA-treated cultures), the “DAT immunoreactivity after toxin” value is on record as “led to a reduction in DAT immunoreactivity comparable to the kainate treatment”.
Take `C=C(C)[C@H]1CN[C@H](C(=O)O)[C@H]1CC(=O)O` [kainate, kainic acid]: the “cyclin E accumulation in granule cell cultures after toxin” value in assay [2] was “led to the accumulation of cyclin E”.
Turning to “5′ UUCCAAACCGG AUGAGUGGdTdT 3′ [parkin siRNA]”, the “cleaved-PARP, marker of apoptosis (Western blot)” value in assay [3] was “accumulation of cleaved poly (ADP-ribose) polymerase”. Besides, in assay [3] (vs control (DAT) siRNA), the “cyclin E accumulation (Western blot)” value is “increased accumulation of cyclin E” and the “parkin protein expression (Western blot)” value is reported as “significantly reduced parkin expression”. Also, in assay [1] (25 nM siRNA, 250 μM kainate 24 h, vs control (SERT) siRNA), the “cyclin E accumulation in DAT-positive neurons” value is “increased accumulation of cyclin E”. In addition, the “apoptosis of DAT-positive neurons (Hoechst)” value in assay [1] (25 nM siRNA, 250 μM kainate 24 h, vs control siRNA) is listed as “increased apoptosis”. For the same molecule, the “DAT immunoreactivity in cell bodies and processes” value in assay [1] (25 nM siRNA, in the presence of kainate, vs control siRNA) was “decreased DAT immunoreactivity”. In addition, the “kainate sensitivity of DAT-negative neurons (cyclin E induction and apoptosis)” value in assay [1] (DAT-negative (primarily GABAergic) neurons vs DAT-positive population, p<0.05) is on record as “did sensitize DAT-negative neurons to kainate toxicity, but to a significantly lesser extent”. The “dopamine neuron sensitivity to MPP+” value in assay [1] (MPP+ 10 μM) is “failed to alter dopamine neuron sensitivity”. In addition, in assay [1] (in the absence of kainate), the “cyclin E or DAT immunoreactivity, siRNA alone” value is listed as “failed to alter cyclin E or DAT immunoreactivity”.
